# Assay results from ChEMBL document CHEMBL5724914, “Linking interpersonal differences in gut microbiota composition and drug biotransformation activity” (2024).
# Settings: human gut metagenome, 24 h, 2 µM
# Also: call rule not given here.
row,Bacterial Biotransformation,Compound
1,Compound metabolized,CCCCc1nc(Cl)c(CO)n1Cc1ccc(-c2ccccc2-c2nn[nH]n2)cc1 [LOSARTAN]
2,Compound NOT metabolized,Cc1cc2c(cc1S(N)(=O)=O)S(=O)(=O)CCC2
3,Compound NOT metabolized,COc1ccccc1OCC(O)COC(N)=O (stereo not given) [METHOCARBAMOL]

row,Compound,Bacterial Biotransformation
1,OCCN1CCN(CCCN2c3ccccc3Sc3ccc(C(F)(F)F)cc32)CC1 [FLUPHENAZINE],Compound metabolized

# Assay: (§1) The drug is tested on WLS-039 corresponding to human gut metagenome with ENA study accession number: PRJEB37062 and ENA sample accession number: ERS12561746 for biotransformation under anaerobic condition. The drug concentrations were measured over 9 timepoints collected between 0 and 24 hours of incubation by liquid-chromatography-coupled mass spectrometry (LC–MS)
# Settings: 2 µM
row,Bacterial Biotransformation,Compound
1,Compound NOT metabolized,CCCCc1nc(Cl)c(CO)n1Cc1ccc(-c2ccccc2-c2nn[nH]n2)cc1 [LOSARTAN]
2,Compound NOT metabolized,Cc1cc2c(cc1S(N)(=O)=O)S(=O)(=O)CCC2
3,Compound NOT metabolized,COc1ccccc1OCC(O)COC(N)=O (stereo not given) [METHOCARBAMOL]

row,Compound,Bacterial Biotransformation
1,OCCN1CCN(CCCN2c3ccccc3Sc3ccc(C(F)(F)F)cc32)CC1 [FLUPHENAZINE],Compound metabolized

# Assay: as §1, with “Z-011” for “WLS-039”, “mouse” for “human”, “ERS12561811” for “ERS12561746”
# Settings: 2 µM
row,Bacterial Biotransformation,Compound
1,Compound NOT metabolized,CCCCc1nc(Cl)c(CO)n1Cc1ccc(-c2ccccc2-c2nn[nH]n2)cc1 [LOSARTAN]
2,Compound NOT metabolized,Cc1cc2c(cc1S(N)(=O)=O)S(=O)(=O)CCC2
3,Compound NOT metabolized,COc1ccccc1OCC(O)COC(N)=O (stereo not given) [METHOCARBAMOL]

row,Compound,Bacterial Biotransformation
1,OCCN1CCN(CCCN2c3ccccc3Sc3ccc(C(F)(F)F)cc32)CC1 [FLUPHENAZINE],Compound metabolized

# Settings: human gut metagenome, 24 h, 2 µM
# Remark: another data set of the same source
row,Bacterial Biotransformation,Compound
1,Compound NOT metabolized,CCCCc1nc(Cl)c(CO)n1Cc1ccc(-c2ccccc2-c2nn[nH]n2)cc1 [LOSARTAN]
2,Compound NOT metabolized,Cc1cc2c(cc1S(N)(=O)=O)S(=O)(=O)CCC2
3,Compound NOT metabolized,COc1ccccc1OCC(O)COC(N)=O (stereo not given) [METHOCARBAMOL]

row,Compound,Bacterial Biotransformation
1,OCCN1CCN(CCCN2c3ccccc3Sc3ccc(C(F)(F)F)cc32)CC1 [FLUPHENAZINE],Compound NOT metabolized

# Assay: as §1, with “WLS-010” for “WLS-039”, “ERS12561743” for “ERS12561746”
# Settings: 2 µM
row,Bacterial Biotransformation,Compound
1,Compound metabolized,CCCCc1nc(Cl)c(CO)n1Cc1ccc(-c2ccccc2-c2nn[nH]n2)cc1 [LOSARTAN]
2,Compound NOT metabolized,Cc1cc2c(cc1S(N)(=O)=O)S(=O)(=O)CCC2
3,Compound NOT metabolized,COc1ccccc1OCC(O)COC(N)=O (stereo not given) [METHOCARBAMOL]

row,Compound,Bacterial Biotransformation
1,OCCN1CCN(CCCN2c3ccccc3Sc3ccc(C(F)(F)F)cc32)CC1 [FLUPHENAZINE],Compound metabolized

# Settings: human gut metagenome, 24 h, 2 µM
# Remark: another data set of the same source
row,Bacterial Biotransformation,Compound
1,Compound metabolized,CCCCc1nc(Cl)c(CO)n1Cc1ccc(-c2ccccc2-c2nn[nH]n2)cc1 [LOSARTAN]
2,Compound NOT metabolized,Cc1cc2c(cc1S(N)(=O)=O)S(=O)(=O)CCC2
3,Compound NOT metabolized,COc1ccccc1OCC(O)COC(N)=O (stereo not given) [METHOCARBAMOL]

row,Compound,Bacterial Biotransformation
1,OCCN1CCN(CCCN2c3ccccc3Sc3ccc(C(F)(F)F)cc32)CC1 [FLUPHENAZINE],Compound metabolized

# Assay: as §1, with “WLS-098” for “WLS-039”, “ERS12561754” for “ERS12561746”
# Settings: 2 µM
row,Bacterial Biotransformation,Compound
1,Compound metabolized,CCCCc1nc(Cl)c(CO)n1Cc1ccc(-c2ccccc2-c2nn[nH]n2)cc1 [LOSARTAN]
2,Compound NOT metabolized,Cc1cc2c(cc1S(N)(=O)=O)S(=O)(=O)CCC2
3,Compound NOT metabolized,COc1ccccc1OCC(O)COC(N)=O (stereo not given) [METHOCARBAMOL]

row,Compound,Bacterial Biotransformation
1,OCCN1CCN(CCCN2c3ccccc3Sc3ccc(C(F)(F)F)cc32)CC1 [FLUPHENAZINE],Compound NOT metabolized

# Assay: as §1, with “Z-021” for “WLS-039”, “to” for “to human gut”, “ERS12561820” for “ERS12561746”
# Settings: 2 µM
row,Bacterial Biotransformation,Compound
1,Compound NOT metabolized,CCCCc1nc(Cl)c(CO)n1Cc1ccc(-c2ccccc2-c2nn[nH]n2)cc1 [LOSARTAN]
2,Compound NOT metabolized,Cc1cc2c(cc1S(N)(=O)=O)S(=O)(=O)CCC2
3,Compound NOT metabolized,COc1ccccc1OCC(O)COC(N)=O (stereo not given) [METHOCARBAMOL]

row,Compound,Bacterial Biotransformation
1,OCCN1CCN(CCCN2c3ccccc3Sc3ccc(C(F)(F)F)cc32)CC1 [FLUPHENAZINE],Compound metabolized

# Settings: human gut metagenome, 24 h, 2 µM
# Remark: another data set of the same source
row,Bacterial Biotransformation,Compound
1,Compound metabolized,CCCCc1nc(Cl)c(CO)n1Cc1ccc(-c2ccccc2-c2nn[nH]n2)cc1 [LOSARTAN]
2,Compound NOT metabolized,Cc1cc2c(cc1S(N)(=O)=O)S(=O)(=O)CCC2
3,Compound NOT metabolized,COc1ccccc1OCC(O)COC(N)=O (stereo not given) [METHOCARBAMOL]

row,Compound,Bacterial Biotransformation
1,OCCN1CCN(CCCN2c3ccccc3Sc3ccc(C(F)(F)F)cc32)CC1 [FLUPHENAZINE],Compound metabolized

# Assay: as §1, with “Z-022” for “WLS-039”, “mouse” for “human”, “ERS12561821” for “ERS12561746”
# Settings: 2 µM
row,Bacterial Biotransformation,Compound
1,Compound NOT metabolized,CCCCc1nc(Cl)c(CO)n1Cc1ccc(-c2ccccc2-c2nn[nH]n2)cc1 [LOSARTAN]
2,Compound NOT metabolized,Cc1cc2c(cc1S(N)(=O)=O)S(=O)(=O)CCC2
3,Compound NOT metabolized,COc1ccccc1OCC(O)COC(N)=O (stereo not given) [METHOCARBAMOL]

row,Compound,Bacterial Biotransformation
1,OCCN1CCN(CCCN2c3ccccc3Sc3ccc(C(F)(F)F)cc32)CC1 [FLUPHENAZINE],Compound metabolized

# Settings: human gut metagenome, 24 h, 2 µM
# Remark: another data set of the same source
row,Bacterial Biotransformation,Compound
1,Compound metabolized,CCCCc1nc(Cl)c(CO)n1Cc1ccc(-c2ccccc2-c2nn[nH]n2)cc1 [LOSARTAN]
2,Compound NOT metabolized,Cc1cc2c(cc1S(N)(=O)=O)S(=O)(=O)CCC2
3,Compound NOT metabolized,COc1ccccc1OCC(O)COC(N)=O (stereo not given) [METHOCARBAMOL]

row,Compound,Bacterial Biotransformation
1,OCCN1CCN(CCCN2c3ccccc3Sc3ccc(C(F)(F)F)cc32)CC1 [FLUPHENAZINE],Compound metabolized

# Assay: as §1, with “Z-023” for “WLS-039”, “to” for “to human gut”, “ERS12561822” for “ERS12561746”
# Settings: 2 µM
row,Bacterial Biotransformation,Compound
1,Compound metabolized,CCCCc1nc(Cl)c(CO)n1Cc1ccc(-c2ccccc2-c2nn[nH]n2)cc1 [LOSARTAN]
2,Compound NOT metabolized,Cc1cc2c(cc1S(N)(=O)=O)S(=O)(=O)CCC2
3,Compound NOT metabolized,COc1ccccc1OCC(O)COC(N)=O (stereo not given) [METHOCARBAMOL]

row,Compound,Bacterial Biotransformation
1,OCCN1CCN(CCCN2c3ccccc3Sc3ccc(C(F)(F)F)cc32)CC1 [FLUPHENAZINE],Compound metabolized

# Assay: as §1, with “Z-025” for “WLS-039”, “rabbit” for “human”, “ERS12561824” for “ERS12561746”
# Settings: 2 µM
row,Bacterial Biotransformation,Compound
1,Compound NOT metabolized,CCCCc1nc(Cl)c(CO)n1Cc1ccc(-c2ccccc2-c2nn[nH]n2)cc1 [LOSARTAN]
2,Compound NOT metabolized,Cc1cc2c(cc1S(N)(=O)=O)S(=O)(=O)CCC2
3,Compound NOT metabolized,COc1ccccc1OCC(O)COC(N)=O (stereo not given) [METHOCARBAMOL]

row,Compound,Bacterial Biotransformation
1,OCCN1CCN(CCCN2c3ccccc3Sc3ccc(C(F)(F)F)cc32)CC1 [FLUPHENAZINE],Compound metabolized

# Settings: human gut metagenome, 24 h, 2 µM
# Remark: another data set of the same source
row,Bacterial Biotransformation,Compound
1,Compound NOT metabolized,CCCCc1nc(Cl)c(CO)n1Cc1ccc(-c2ccccc2-c2nn[nH]n2)cc1 [LOSARTAN]
2,Compound NOT metabolized,Cc1cc2c(cc1S(N)(=O)=O)S(=O)(=O)CCC2
3,Compound NOT metabolized,COc1ccccc1OCC(O)COC(N)=O (stereo not given) [METHOCARBAMOL]

row,Compound,Bacterial Biotransformation
1,OCCN1CCN(CCCN2c3ccccc3Sc3ccc(C(F)(F)F)cc32)CC1 [FLUPHENAZINE],Compound NOT metabolized

# Assay: as §1, with “Z-006” for “WLS-039”, “mouse” for “human”, “ERS12561806” for “ERS12561746”
# Settings: 2 µM
row,Bacterial Biotransformation,Compound
1,Compound NOT metabolized,CCCCc1nc(Cl)c(CO)n1Cc1ccc(-c2ccccc2-c2nn[nH]n2)cc1 [LOSARTAN]
2,Compound NOT metabolized,Cc1cc2c(cc1S(N)(=O)=O)S(=O)(=O)CCC2
3,Compound NOT metabolized,COc1ccccc1OCC(O)COC(N)=O (stereo not given) [METHOCARBAMOL]

row,Compound,Bacterial Biotransformation
1,OCCN1CCN(CCCN2c3ccccc3Sc3ccc(C(F)(F)F)cc32)CC1 [FLUPHENAZINE],Compound metabolized

# Assay: as §1, with “WLS-052” for “WLS-039”, “ERS12561747” for “ERS12561746”
# Settings: 2 µM
row,Bacterial Biotransformation,Compound
1,Compound NOT metabolized,CCCCc1nc(Cl)c(CO)n1Cc1ccc(-c2ccccc2-c2nn[nH]n2)cc1 [LOSARTAN]
2,Compound NOT metabolized,Cc1cc2c(cc1S(N)(=O)=O)S(=O)(=O)CCC2
3,Compound NOT metabolized,COc1ccccc1OCC(O)COC(N)=O (stereo not given) [METHOCARBAMOL]

row,Compound,Bacterial Biotransformation
1,OCCN1CCN(CCCN2c3ccccc3Sc3ccc(C(F)(F)F)cc32)CC1 [FLUPHENAZINE],Compound metabolized

# Settings: human gut metagenome, 24 h, 2 µM
# Remark: another data set of the same source
row,Bacterial Biotransformation,Compound
1,Compound metabolized,CCCCc1nc(Cl)c(CO)n1Cc1ccc(-c2ccccc2-c2nn[nH]n2)cc1 [LOSARTAN]
2,Compound NOT metabolized,Cc1cc2c(cc1S(N)(=O)=O)S(=O)(=O)CCC2
3,Compound NOT metabolized,COc1ccccc1OCC(O)COC(N)=O (stereo not given) [METHOCARBAMOL]

row,Compound,Bacterial Biotransformation
1,OCCN1CCN(CCCN2c3ccccc3Sc3ccc(C(F)(F)F)cc32)CC1 [FLUPHENAZINE],Compound NOT metabolized

# Settings: human gut metagenome, 24 h, 2 µM
# Remark: another data set of the same source
row,Bacterial Biotransformation,Compound
1,Compound metabolized,CCCCc1nc(Cl)c(CO)n1Cc1ccc(-c2ccccc2-c2nn[nH]n2)cc1 [LOSARTAN]
2,Compound NOT metabolized,Cc1cc2c(cc1S(N)(=O)=O)S(=O)(=O)CCC2
3,Compound NOT metabolized,COc1ccccc1OCC(O)COC(N)=O (stereo not given) [METHOCARBAMOL]

row,Compound,Bacterial Biotransformation
1,OCCN1CCN(CCCN2c3ccccc3Sc3ccc(C(F)(F)F)cc32)CC1 [FLUPHENAZINE],Compound metabolized

# Assay: as §1, with “WLS-027” for “WLS-039”, “ERS12561744” for “ERS12561746”
# Settings: 2 µM
row,Bacterial Biotransformation,Compound
1,Compound metabolized,CCCCc1nc(Cl)c(CO)n1Cc1ccc(-c2ccccc2-c2nn[nH]n2)cc1 [LOSARTAN]
2,Compound NOT metabolized,Cc1cc2c(cc1S(N)(=O)=O)S(=O)(=O)CCC2
3,Compound NOT metabolized,COc1ccccc1OCC(O)COC(N)=O (stereo not given) [METHOCARBAMOL]

row,Compound,Bacterial Biotransformation
1,OCCN1CCN(CCCN2c3ccccc3Sc3ccc(C(F)(F)F)cc32)CC1 [FLUPHENAZINE],Compound metabolized

# Settings: human gut metagenome, 24 h, 2 µM
# Remark: another data set of the same source
row,Bacterial Biotransformation,Compound
1,Compound metabolized,CCCCc1nc(Cl)c(CO)n1Cc1ccc(-c2ccccc2-c2nn[nH]n2)cc1 [LOSARTAN]
2,Compound NOT metabolized,Cc1cc2c(cc1S(N)(=O)=O)S(=O)(=O)CCC2
3,Compound NOT metabolized,COc1ccccc1OCC(O)COC(N)=O (stereo not given) [METHOCARBAMOL]

row,Compound,Bacterial Biotransformation
1,OCCN1CCN(CCCN2c3ccccc3Sc3ccc(C(F)(F)F)cc32)CC1 [FLUPHENAZINE],Compound metabolized
